Assay results reported in patent USRE42376E1, “Substituted 3-cyanoquinolines” (Wyeth Holdings Corporation, priority 1998, dated 2011).
Values after ≈ are worked out from the molar mass of the structure shown. Where a name gives a salt, the structure may show the parent alone.

Assays:
[1] = target: Epithelial Cell Kinase (ECK) (Homo sapiens, UniProt P29317); assay: Inhibition of Epithelial Cell Kinase (ECK); assay type: biochemical
Description: In this standard pharmacological test procedure, a biotinylated peptide substrate is first immobilized on neutravidin-coated microtiter plates. The test drug, the Epithelial Cell Kinase (ECK), Mg^++, sodium vanadate (a protein tyrosine phosphatase inhibitor), and an appropriate buffer to maintain pH (7.2) are then added to the immobilized substrate-containing microtiter wells. ATP is then added to initiate phosphorylation. After incubation, the assay plates are washed with a suitable buffer leaving behind phosphorylated peptide which is exposed to horse radish peroxidase (HRP)-conjugated anti-phosphotyrosine monoclonal antibody. The antibody-treated plates are washed again and the HRP activity in individual wells is quantified as a reflection of degree of substrate phosphorylation. […] Multiple entries for a given compound indication it was tested multiple times.

[2] = target: T1, recombinant human MEK 1 (MAPKK) and human ERK2 (MAPK) (Homo sapiens, UniProt P28482+Q02750); assay: Mitogen Activated Protein Kinase (MAPK) coupled assay (Mek-Erk); assay type: biochemical; settings: separate entries = repeat tests
T1 construct: The recombinant enzymes used were prepared as GST fusion proteins of human ERK 2 and human MEK 1
Description: To evaluate inhibitors of the MAP (mitogen activated protein) kinase a two component coupled standard pharmacological test procedure, which measures phosphorylation of a serine/threonine residue in an appropriate sequence in the substrate in the presence and absence of a putative inhibitor, was used. Recombinant human MEK 1 (MAPKK) was first used to activate recombinant human ERK2 (MAPK) and the activated MAPK (ERK) was incubated with substrate (MBP peptide or MYC peptide) in the presence of ATP, Mg^+2 and radiolabeled ^33P ATP. The phosphorylated peptide was captured on a P 81 phosphocellulose filter (paper filter or embedded in microtiter plate) washed and counted by scintillation methods. […]
The reaction was run as follows in 50 mM Tris kinase buffer, pH 7.4 in a reaction volume of 50 ul. […] The filters or MTP were briefly air dried before addition of scintillant and samples were counted in the appropriate scintillation counter set up for reading ^33P isotope. […]
The raw data was captured as cpm. […] Mean cpm data was tabulated by group and % inhibition by a test compound was calculated as (corrected cpm control-corrected. cpm sample/control) X 100=% inhibition. […] The results obtained for representative compounds of this invention are listed in TABLE 2 where there may be separate entries for the same compound; this is an indication that the compound was evaluated more than one time.

[3] = tested on: Human Epidermoid Tumors (A431); assay: In vivo inhibition of the growth of human epidermoid tumors (A431) in mice; set-up: species or system BALB/c nu/nu female mice; settings: for S/T = # of Survivors/# of Treated: Day +28 post tumor staging
Description: Human epidernoid carcinoma cells A-431 (American Type Culture Collection, Rockville, Md. #CRL-155) were grown in vitro as described above. A unit of 5×10^6 cells were injected SC into mice. […] Control animals received no drug. […] The % T/C (Tumor/Control) is determined by dividing the relative tumor growth of the treated group by the relative tumor growth of the placebo group and multiplying by 100.

[4] = tested on: SW620; assay: Inhibition of cancer cell growth as measured by cell number, SW620; assay type: cell-based, Human; settings: 48 hours exposure, Sulforhodamine B
Description: (§1) Human tumor cell lines were plated in 96-well plates (250 μl/well, 1-6×10^4 cells/ml) in RPMI 1640 medium, containing 5% FBS (Fetal Bovine Serum). […] After 48 hours exposure to test compounds, cells were fixed with trichloroacetic acid, and stained with Sulforhodamine B. After washing with trichloroacetic acid, bound dye was solubilized in 10 mM Tris base and optical density was determined using plate reader. Under conditions of the assay the optical density is proportional to the number of cells in the well. […] The test procedure is described in details by Philip Skehan et. al, J.Natl. Canc. Inst., 82, 1107-1112 (1990). […] Information about some of the cell lines used in these test procedures is available from the American Type Tissue Collection: Cell Lines and Hybridomas, 1994 Reference Guide, 8th Edition.

[5] = tested on: SKBR3; assay: Inhibition of cancer cell growth as measured by cell number, SKBR3; assay type: cell-based, Human; settings: 48 hours exposure, Sulforhodamine B
Description: as §1

[6] = tested on: A431; assay: Inhibition of cancer cell growth as measured by cell number, A431; assay type: cell-based, Human; settings: 48 hours exposure, Sulforhodamine B
Description: as §1

[7] = tested on: 3T3; assay: Inhibition of cell growth as measured by cell number, 3T3; assay type: cell-based; settings: 48 hours exposure, Sulforhodamine B
Description: as §1

[8] = tested on: Her2/3T3; assay: Inhibition of cell growth as measured by cell number, Her2/3T3; assay type: cell-based; settings: 48 hours exposure, Sulforhodamine B
Description: as §1

[9] = tested on: MDAMB435; assay: Inhibition of cancer cell growth as measured by cell number, MDAMB435; assay type: cell-based, Human; settings: 48 hours exposure, Sulforhodamine B
Description: as §1

Epithelial Cell Kinase (ECK), sequence (P29317 24-976, species assumed): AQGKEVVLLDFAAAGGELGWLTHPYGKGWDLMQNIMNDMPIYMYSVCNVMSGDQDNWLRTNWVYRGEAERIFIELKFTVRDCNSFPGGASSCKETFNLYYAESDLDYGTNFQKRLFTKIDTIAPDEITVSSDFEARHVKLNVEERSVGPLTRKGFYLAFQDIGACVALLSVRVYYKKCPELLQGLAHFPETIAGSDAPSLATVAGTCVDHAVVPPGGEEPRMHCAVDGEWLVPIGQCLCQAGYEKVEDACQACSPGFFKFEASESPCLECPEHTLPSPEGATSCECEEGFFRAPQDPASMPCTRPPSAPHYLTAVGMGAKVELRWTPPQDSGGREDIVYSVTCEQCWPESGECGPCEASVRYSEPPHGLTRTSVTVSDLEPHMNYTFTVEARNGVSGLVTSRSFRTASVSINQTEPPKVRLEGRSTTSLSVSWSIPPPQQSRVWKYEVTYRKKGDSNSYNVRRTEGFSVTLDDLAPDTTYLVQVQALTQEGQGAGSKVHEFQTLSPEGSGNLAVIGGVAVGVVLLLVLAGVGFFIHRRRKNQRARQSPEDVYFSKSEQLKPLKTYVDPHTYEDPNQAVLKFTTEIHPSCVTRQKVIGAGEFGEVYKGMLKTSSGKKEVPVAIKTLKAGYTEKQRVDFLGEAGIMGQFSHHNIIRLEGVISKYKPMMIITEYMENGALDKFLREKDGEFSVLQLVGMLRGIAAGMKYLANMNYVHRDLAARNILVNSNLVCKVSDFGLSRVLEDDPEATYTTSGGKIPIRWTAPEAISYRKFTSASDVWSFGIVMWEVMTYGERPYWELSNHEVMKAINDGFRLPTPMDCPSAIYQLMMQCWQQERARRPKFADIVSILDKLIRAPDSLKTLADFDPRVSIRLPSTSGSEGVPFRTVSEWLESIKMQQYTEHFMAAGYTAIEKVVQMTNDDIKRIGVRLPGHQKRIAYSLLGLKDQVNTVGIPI
T1 sequence (Q02750 whole entry, the tested form may be a part): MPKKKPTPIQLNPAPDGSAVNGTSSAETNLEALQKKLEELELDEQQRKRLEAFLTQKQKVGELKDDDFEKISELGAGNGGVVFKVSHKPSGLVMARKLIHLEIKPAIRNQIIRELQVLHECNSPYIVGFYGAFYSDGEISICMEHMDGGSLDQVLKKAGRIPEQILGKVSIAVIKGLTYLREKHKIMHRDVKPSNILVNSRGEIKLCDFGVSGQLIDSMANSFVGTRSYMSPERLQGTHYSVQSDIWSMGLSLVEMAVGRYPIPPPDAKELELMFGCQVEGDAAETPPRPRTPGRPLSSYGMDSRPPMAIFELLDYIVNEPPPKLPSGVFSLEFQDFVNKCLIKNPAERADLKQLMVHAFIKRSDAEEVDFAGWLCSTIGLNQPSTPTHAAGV
T1 sequence (P28482 2-360): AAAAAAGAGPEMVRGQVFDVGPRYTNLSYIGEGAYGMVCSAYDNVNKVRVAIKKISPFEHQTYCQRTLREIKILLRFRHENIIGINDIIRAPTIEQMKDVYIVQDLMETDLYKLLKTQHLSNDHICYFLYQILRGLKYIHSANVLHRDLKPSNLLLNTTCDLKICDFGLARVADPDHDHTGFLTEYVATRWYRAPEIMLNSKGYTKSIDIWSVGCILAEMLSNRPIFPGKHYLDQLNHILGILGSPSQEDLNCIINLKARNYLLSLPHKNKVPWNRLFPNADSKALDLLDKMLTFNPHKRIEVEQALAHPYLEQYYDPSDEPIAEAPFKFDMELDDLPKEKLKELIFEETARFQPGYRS

**Q.** For `COc1cc2ncc(C#N)c(Nc3ccc(F)c(Cl)c3)c2cc1N1CC1`, which melting point is on record?
**A.** Its melting point is 197 to 199 °C.

**Q.** With `COCCN(CC#CC(=O)Nc1ccc2ncc(C#N)c(Nc3cccc(Br)c3)c2c1)CCOC` [Example 75, N-[4-[(3-Bromophenyl)amino]-3-cyano-6-quinolinyl]-4-(bis-(2-methoxyethyl)amino)-2-butynamide] as the compound, how does the IC50 [1] read?
**A.** The IC50 was greater than 37.3 µM.

**Q.** What about the melting point of the same compound?
**A.** Its melting point is 98 to 101 °C.

**Q.** What does the source list for `COCCN(C)CC#CC(=O)Nc1ccc2ncc(C#N)c(Nc3cccc(Br)c3)c2c1` [Example 76, N-[4-[(3-Bromophenyl)amino]-3-cyano-6-quinolinyl]-4-(N-methoxyethyl-N-methylamino)-2-butynamide]?
**A.** IC50 [1]: > 40.6 µM; melting point: 95 °C (dec.)

**Q.** For `C=CCN(C)CC#CC(=O)Nc1ccc2ncc(C#N)c(Nc3cccc(Br)c3)c2c1` [Example 77, N-[4-[(3-Bromophenyl)amino]-3-cyano-6-quinolinyl]-4-(N-allyl-N-methylamino)-2-butynamide], which melting point is on record?
**A.** Its melting point is 133 to 135 °C.

**Q.** With `COC[C@@H]1CCCN1CC#CC(=O)Nc1ccc2ncc(C#N)c(Nc3cccc(Br)c3)c2c1` [Example 79, 4-((2S)-2-Methoxymethylpyrrolidin-1-yl)but-2-ynoic Acid[4-(3-bromophenylamino)-3-cyanoquinolin-6-yl]amide] as the compound, how does the IC50 [1] read?
**A.** The IC50 was greater than 38.6 µM.

**Q.** What about the IC50 [2] of the same compound?
**A.** The IC50 was 80 µM.

**Q.** For `CCOc1c(Nc2ccc3ncc(C#N)c(Nc4cccc(Br)c4)c3c2)c(=O)c1=O` [Example 85, 4-(3-Bromo-phenylamino)-6-(2-ethoxy-3,4-dioxo-cyclobut-1-enylamino)-quinoline-3-carbonitrile], which IC50 [1] is on record?
**A.** Its IC50 is greater than 21.6 µM.

**Q.** Which results are given for `COCCN(C)CC=CC(=O)Nc1cc2c(Nc3ccc(F)c(Cl)c3)c(C#N)cnc2cc1OC` [Example 89, 4-[(2-Methoxy-ethyl)-methyl-amino]-but-2-enoic Acid[4-(3-chloro-4-fluoro-phenylamino)-3-cyano-7-methoxy-quinolin-6-yl]-amide Dihydrochloride]?
**A.** S/T = # of Survivors/# of Treated ([3]; Table 5, 10 mg/kg/dose PO days 1 through 10): 4/5; S/T = # of Survivors/# of Treated ([3]; Table 5, 40 mg/kg/dose PO days 1 through 10): 5/5; inhibition of tumor growth in vivo (in words) ([3]; given orally at 40 mg/Kg and 10 mg/Kg): effective inhibitor of tumor growth in vivo

**Q.** Which “IC50 cell growth SW620” value [4] does the source give for `COC[C@@H]1CCCN1CC=CC(=O)Nc1cc2c(Nc3ccc(F)c(Cl)c3)c(C#N)cnc2cc1OC.Cl.Cl` [Example 90, (S)-4-(2-Methoxymethyl-pyrrolidin-1-yl)-but-2-enoic Acid[4-(3-chloro-4-fluoro-phenylamino)-3-cyano-7-methoxy-quinolin-6-yl]-amide dihydrochloride] here?
**A.** The value was 1.24 µg/mL.

**Q.** What about the “IC50 cell growth SKBR3” value [5] of the same compound?
**A.** The value was 0.148 µg/mL.

**Q.** What about the “IC50 cell growth A431” value [6] of the same compound?
**A.** The value was 0.234 µg/mL.

**Q.** What about the “IC50 cell growth 3T3” value [7] of the same compound?
**A.** Its value is 2.1 µg/mL.

**Q.** What about the “IC50 cell growth Her2/3T3” value [8] of the same compound?
**A.** Its value is 0.329 µg/mL.

**Q.** And the “IC50 cell growth MDAMB435” value [9]?
**A.** The value was 1.74 µg/mL.

**Q.** What does the source list for `COc1cc2ncc(C#N)c(Nc3ccc(F)c(Cl)c3)c2cc1NC(=O)C=CCN1CCC2(CC1)OCCO2` [Example 92, 4-(1,4-Dioxa-8-aza-spiro[4.5]dec-8-yl)-but-2-enoic Acid[4-(3-chloro-4-fluoro-phenylamino)-3-cyano-7-methoxy-quinolin-6-yl]-amide]?
**A.** IC50 cell growth SW620 [4]: 2.51 µg/mL (≈ 4.55 µM); S/T = # of Survivors/# of Treated ([3]; Table 4, 10 mg/kg/dose PO days 1 through 10): 5/5; S/T = # of Survivors/# of Treated ([3]; Table 4, 40 mg/kg/dose PO days 1 through 10): 5/5; inhibition of tumor growth in vivo (in words) ([3]; given orally at 40 mg/Kg): effective inhibitor of tumor growth in vivo; IC50 cell growth SKBR3 [5]: 0.188 µg/mL (≈ 0.341 µM); IC50 cell growth A431 [6]: 0.283 µg/mL (≈ 0.513 µM); IC50 cell growth 3T3 [7]: 2.79 µg/mL (≈ 5.05 µM); IC50 cell growth Her2/3T3 [8]: 0.35 µg/mL (≈ 0.634 µM); IC50 cell growth MDAMB435 [9]: 3.32 µg/mL (≈ 6.01 µM)
